A short description of data set [1]: Therapeutic index value was evaluated as the ratio of IC50/EC50. The following applies: read-out: TI.
Data set [2] relates to H9. Kind of data set: Anti-HIV activity was evaluated as the concentration required to inhibit HIV-1 replication in H9 lymphocyte cells by 50%. Format: functional, cell-based. Particulars: Homo sapiens.
Data set [3] concerns H9. In words: Anti-HIV activity was evaluated as the concentration required to inhibit the growth of uninfected H9 lymphocyte cells by 50%. Type of data set: functional, cell-based. Particulars: Homo sapiens.

Where only a bound is given, the exact number is not on record here.

For `CC1(C)Oc2ccc3ccc(=O)oc3c2[C@@H](OC(=O)C23CCC(C)(C(=O)O2)C3(C)C)[C@H]1OC(=O)C12CCC(C)(C(=O)O1)C2(C)C` (stereo partly drawn), in data set [1], the selectivity ratio was 137000.
Molecule `Cc1cc(=S)oc2c3c(ccc12)OC(C)(C)[C@H](OC(=O)C12CCC(C)(C(=O)O1)C2(C)C)[C@@H]3OC(=O)C12CCC(C)(C(=O)O1)C2(C)C` (stereo partly drawn) registered a concentration for a half-maximal effect (EC50) in data set [2] of 0.00718 µM. The molecule further gave an IC50 in data set [3] greater than 153 µM. In data set [1], the selectivity ratio was greater than 21300.
As to `CC1(C)Oc2ccc3c(-c4ccccc4)cc(=S)oc3c2[C@@H](OC(=O)C23CCC(C)(C(=O)O2)C3(C)C)[C@H]1OC(=O)C12CCC(C)(C(=O)O1)C2(C)C` (stereo partly drawn), a half-maximal effect in data set [2] (EC50) was put at 2.48 µM. The molecule further came in with a half-inhibitory concentration (IC50) in data set [3] greater than 140 µM. In addition, the selectivity ratio in data set [1] was greater than 56.6.
In turn, `CCCc1cc(=S)oc2c3c(ccc12)OC(C)(C)[C@H](OC(=O)C12CCC(C)(C(=O)O1)C2(C)C)[C@@H]3OC(=O)C12CCC(C)(C(=O)O1)C2(C)C` (stereo partly drawn) showed an EC50 in data set [2] of 0.128 µM. For the same molecule, in data set [3], the IC50 is greater than 148 µM. Besides, the selectivity ratio in data set [1] is greater than 1150.
The molecule `CC1(C)Oc2ccc3ccc(=S)oc3c2[C@@H](OC(=O)C23CCC(C)(C(=O)O2)C3(C)C)[C@H]1OC(=O)C12CCC(C)(C(=O)O1)C2(C)C` (stereo partly drawn) registered an EC50 in data set [2] of 0.029 µM. The same molecule gave an IC50 in data set [3] greater than 156 µM. Moreover, in data set [1], the selectivity ratio is greater than 5390.

What is called EC50 is the concentration that produces a half-maximal response. A low value points to a more potent agent. In general, IC50 refers to the midpoint of a concentration-inhibition curve. A higher IC50 goes with weaker potency in that assay.
